Entries after “also recorded” stand apart in the source; their conditions may differ.
How the values were obtained:
hA2AAR = hA2AAR (Homo sapiens, UniProt P29274); settings: read-out: Affinity (Ki) hA2A; HEK293 cell membranes; ref Melman et al.[19]; cited from earlier work
hA3AR [1] = target: T1, hA3AR (Homo sapiens, UniProt P0DMS8); settings: at 10 µM, relative to 10 µM NECA (=100%); ref Melman et al.[19]; cited from earlier work
T1 sequence (P0DMS8 1-318): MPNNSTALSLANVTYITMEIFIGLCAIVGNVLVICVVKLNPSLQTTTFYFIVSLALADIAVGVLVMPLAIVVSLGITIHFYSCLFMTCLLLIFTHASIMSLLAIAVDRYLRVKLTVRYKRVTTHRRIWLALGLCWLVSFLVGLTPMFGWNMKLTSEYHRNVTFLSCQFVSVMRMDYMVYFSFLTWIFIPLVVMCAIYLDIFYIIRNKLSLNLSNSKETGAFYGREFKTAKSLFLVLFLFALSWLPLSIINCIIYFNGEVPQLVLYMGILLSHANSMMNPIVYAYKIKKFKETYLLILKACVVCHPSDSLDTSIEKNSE

hA3AR [2] = target: T1, hA3AR; settings: read-out: Affinity (Ki) hA3; CHO cell membranes; ref Melman et al.[19]; cited from earlier work
hA1AR = target: T2, hA1AR (Homo sapiens, UniProt P30542); settings: read-out: Affinity (Ki) hA1; CHO cell membranes; ref Melman et al.[19]; cited from earlier work
T2 sequence (P30542 1-326): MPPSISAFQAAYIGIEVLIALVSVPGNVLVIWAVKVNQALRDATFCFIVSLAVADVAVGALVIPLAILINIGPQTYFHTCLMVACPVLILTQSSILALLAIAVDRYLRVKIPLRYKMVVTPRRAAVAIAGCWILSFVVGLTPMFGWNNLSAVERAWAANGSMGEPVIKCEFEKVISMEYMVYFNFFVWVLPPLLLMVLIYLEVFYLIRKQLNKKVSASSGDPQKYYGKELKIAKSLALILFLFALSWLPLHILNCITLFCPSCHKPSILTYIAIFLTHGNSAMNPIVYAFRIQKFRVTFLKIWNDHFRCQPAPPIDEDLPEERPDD

hA3AR [3] = target: T1, hA3AR; type: cell-based; settings: in words, from cyclic AMP assay at 10 µM

Sequence of hA2AAR (P29274 whole entry): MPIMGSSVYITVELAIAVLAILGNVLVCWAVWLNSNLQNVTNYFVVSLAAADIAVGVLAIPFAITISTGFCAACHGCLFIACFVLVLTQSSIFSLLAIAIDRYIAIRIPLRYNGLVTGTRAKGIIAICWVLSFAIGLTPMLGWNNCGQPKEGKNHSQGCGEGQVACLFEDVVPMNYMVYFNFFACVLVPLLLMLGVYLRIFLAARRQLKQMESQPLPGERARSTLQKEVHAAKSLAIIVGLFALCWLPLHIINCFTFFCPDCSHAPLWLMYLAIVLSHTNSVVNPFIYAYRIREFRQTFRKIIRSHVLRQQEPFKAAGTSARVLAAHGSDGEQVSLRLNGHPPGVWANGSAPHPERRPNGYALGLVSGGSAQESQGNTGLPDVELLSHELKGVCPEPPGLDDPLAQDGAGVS

functional character at the hA3AR (hA3AR [3])	SMILES	other results
antagonists	CCNc1nc(C#Cc2ccccc2)nc2c1ncn2[C@H]1[C@H](O)[C@H](O)[C@@H]2C[C@@H]21 [Compound 8]	
antagonists	CCNc1nc(C#Cc2ccccc2Cl)nc2c1ncn2[C@H]1[C@H](O)[C@H](O)[C@@H]2C[C@@H]21 [Compound 9]	
low-efficacy partial agonists	O[C@@H]1[C@H](O)[C@@H]2C[C@@H]2[C@H]1n1cnc2c(NCc3cccc(Cl)c3)nc(C#Cc3ccccc3Cl)nc21 [Compound 12]	
low-efficacy partial agonists	O[C@@H]1[C@H](O)[C@@H]2C[C@@H]2[C@H]1n1cnc2c(NCCc3ccccc3)nc(C#Cc3ccccc3Cl)nc21 [Compound 16]	

Second part, the compound before the results:

SMILES	functional character at the hA3AR (hA3AR [3])	other results
CNC(=O)[C@@]12C[C@@H]1[C@@H](n1cnc3c(NCc4cccc(Cl)c4)nc(Cl)nc31)[C@H](O)[C@@H]2O [Compound 1]		Ki (hA2AAR): 2300 ± 100 nM
O[C@@H]1[C@H](O)[C@@H]2C[C@@H]2[C@H]1n1cnc2c(NCc3cccc(I)c3)nc(Cl)nc21 [Compound 2a]		%Efficacy hA3 (hA3AR [1]): 1.0±3.2%; Ki (hA3AR [2]): 1.44 nM
OC1C(O)C(n2cnc3c(NCc4cccc(Cl)c4)nc(Cl)nc32)C2CC12 (stereo not shown) [Compound 2b]		Ki (hA2AAR): 4510 nM; %Efficacy hA3 (hA3AR [1]): 2.9±3.7%; Ki (hA1AR): 3070 nM
CNc1nc(C#Cc2ccccc2Cl)nc2c1ncn2[C@H]1[C@H](O)[C@H](O)[C@@H]2C[C@@H]21 [Compound 5]	antagonists	
CONc1nc(C#Cc2ccccc2)nc2c1ncn2[C@H]1[C@H](O)[C@H](O)[C@@H]2C[C@@H]21 [Compound 6]	low-efficacy partial agonists	
O[C@@H]1[C@H](O)[C@@H]2C[C@@H]2[C@H]1n1cnc2c(NCCc3ccccc3)nc(C#Cc3ccccc3)nc21 [Compound 15]	selective antagonist; also recorded: antagonists	

— publication PMC3491360 (ACS medicinal chemistry letters, 2012)
